Measured values: patent publication US10030064B2, “Mammalian cell culture processes for protein production” (priority 2009, dated 2018)

Experiments:
Type in all cases: cell-based, Chinese hamster
[1] = test system: CHO DG44 cell line expressing the fusion glycoprotein; assay: Shake flask CHO culture: total sialic acid content, N-linked and O-linked oligosaccharide profile of the secreted fusion glycoprotein
Protocol: The CHO cell line used in this study was originally subcloned from DG44 parental cells and cultured in a proprietary protein-free growth medium.
The experiments were carried out in 250-mL shake flasks (VWR international) with starting volumes of 100 mL and initial cell densities of 6×10^5 cells/mL. The cultures were placed on a shaker platform (VWR international) at 150 rpm and maintained at 37° C. and 6% CO2 for ten days. The cultures were sampled daily and the pH was adjusted as needed using 1M sodium carbonate and fed with glucose and glutamine every two days in order to maintain them at adequate levels. Cell density and viability were measured offline using a Cedex automated cell counter (Innovatis AG, Bielefeld, Germany). Culture pH and concentrations for glucose and glutamine were measured off-line using a Bioprofile Analyzer 400 (Nova Biomedical Corporation, Waltham, Mass.).
The sialic acid to recombinant protein molar ratio was calculated by determining the sialic acid and recombinant protein concentrations. Sialic acid (SA), including N-Acetylneuraminic (Neu5Ac) and N-glycolylneuraminic acid (Neu5Gc), was released by partial acid hydrolysis. The derivatives were then separated by reversed-phase HPLC to determine sialic acid content. The protein concentrations were determined by UV absorbance at 280 nm. Sialic acid content is reported as molar ratios, which is the total moles of Neu5Ac and Neu5Gc per mole of recombinant glycoprotein. Sialic acid contents are reported as normalized values, which are the actual values divided by an arbitrary value. The same divisor was used to normalize all sialic acid content data in the studies reported here.
High-pH anion-exchange chromatography with pulsed amperometric detection (HPAEC-PAD) was used for the profiling of N-linked oligosaccharides (Base and Spellman 1990; Townsend and Hardy 1991) to provide information on site-specific N-linked glycosylation. N-linked oligosaccharides were cleaved from protein and separated on HPAEC-PAD into four domains based on the amount of sialic acid present. Domain I represents the asialo species. Domains II, III, and IV are sialylated species and represent monosialylated, disialylated, and tri- and tetrasialylated species, respectively. N-linked sialylated species fraction is reported as the percentage of N-linked sialylated species within the total N-linked oligosaccharides species, which includes both asialo and sialylated species. N-linked sialylated species fractions are reported as normalized values, which are the actual values divided by an arbitrary value. The same divisor was used to normalize all N-linked sialylated species fraction data in the studies reported here.
O-linked glycosylation was characterized by intact mass analysis of a reference standard and Protein-A purified samples of the fusion protein (Reference). Samples were diluted in 100 mM Tris, 25 mM NaCl, pH 7.6 and incubated with PNGase F overnight to enzymatically remove all N-linked oligosaccharides. Samples were then injected for intact mass analysis after mixing with an internal standard of insulin. O-linked sialic acid content is reported as molar ratios, which is the moles of O-linked sialic acid per mole of recombinant glycoprotein.
This study was performed in duplicate 250-mL shake flasks using the culture conditions as described above. […] Cultures were harvested on day 10, and the fusion protein was purified using a protein A column and analyzed for total sialic acid content, O-linked sialic acid content and the N-linked profile.

sialidase = assay: Sialidase activity in culture supernatant (Amplex Red Neuraminidase assay); conditions: 1 μM DEX from day 2, absorbance at 560 nm
Protocol: Sialidase activity was analyzed using the Amplex Red Neuraminidase (Sialidase) Assay Kit (Invitrogen, Carlsbad, Calif.). Briefly, neuraminidase in the sample is used to desialylate fetuin. This assay utilizes Amplex Red to detect H2O2 generated by oxidation of the desialylated galactose residues on the fetuin by galactose oxidase. The H2O2, in the presence of HRP, reacts stoichiometrically with Amplex Red reagent to generate the red-fluorescent oxidation product, resorufin 5, which is then analyzed either fluorometrically or spectrophotometrically. In each assay, 50 μL of working solution (100 μM Amplex Red, 0.2 U/mL HRP, 4 U/mL galactose oxidase and 500 μg/mL fetuin) was added into each microplate well containing 50 μL of diluted cell culture supernatant. After 30 minutes incubation at 37° C., samples were analyzed for absorbance at 560 nm using a microplate reader.
As shown in FIG. 2A and FIG. 2B, increased sialidase activity was associated with the decreased cell viabilities in both the DEX-treated and untreated cultures.

[2] = test system: GILZ (glucocorticoid-induced leucine zipper); assay: qRT-PCR of GILZ gene expression in CHO cells; conditions: 1 μM DEX added day 2
Protocol: Purified RNA was treated with RNasefree DNaseI (Qiagen) and then used as a template to synthesize the first-strand cDNA using RT^2 First Strand Kit (SA Biosciences, Frederick, Md.). Expression of GILZ was quantitatively determined using GILZ specific TaqMan MGB probe (6-FAM-[…]) and primers (Forward: 5-[…]-3 and Reverse: 5-[…]-3). 20 ng of cDNA was amplified using 900 nM primers and 250 nM probe in 1× TaqMan Fast Universal PCR Master Mix (Applied Biosystems, Carlsbad, Calif.). Reactions were run in triplicate on the Applied Biosystems 7500 Fast Real-Time PCR System using the universal cycling parameters (20 s 95° C., 40 cycles of 3 s 95° C., 30 s 60° C.). Parallel reactions were set up on the same plate analyzing β-Actin in each sample as an endogenous control. The threshold cycle of each gene was normalized against the threshold cycle of “housekeeping gene” […]. Normalized changes in gene expression with respect to the control were calculated using delta-delta threshold cycle method (Livak and Schmittgen, 2001).
GILZ was analyzed using qRT-PCR to validate the gene expression profiles obtained by microarray analysis. […] Parallel reactions were set up on the same plate analyzing β-Actin in each sample as an endogenous control.

[3] = 0.1 μM DEX, with 1 μM RU-486 added 24 hours before DEX
[4] = DEX 0.01 μM added day 2, harvest day 10
[5] = DEX 0.1 μM added day 2, harvest day 10
[6] = DEX 1.0 μM added day 2, harvest day 10
[7] = DEX 10 μM added day 2, harvest day 10

In the case of `C[C@@H]1C[C@H]2[C@@H]3CCC4=CC(=O)C=C[C@]4(C)[C@@]3(F)[C@@H](O)C[C@]2(C)[C@@]1(O)C(=O)CO` [DEX, dexamethasone], the “normalized N-linked sialylated species fraction” value [1, 3] is reported as 81.5±0.8, the “normalized total sialic acid content” value [1, 3] is reported as 12.7±0.1 and the “normalized N-linked sialylated species fraction” value ([1]; 0.1 μM DEX, without RU-486) is reported as 92.2±2.0. The “Percent increase of N-link asialo-” value [1, 4] was −8.6%, the “Percent increase of N-link-Di-” value [1, 4] was 13.9% and the “Percent increase of N-link-Mono-” value [1, 4] was 6.6%. For the same compound, the “Percent increase of N-link-Tri and tetra-” value [1, 4] was 4.5%, the “Percent increase of O-link SA” value [1, 4] was 0.0% and the “Percent increase of SA” value ([1]; DEX 0.01 μM added day 2, harvest day 10, vs control) was 9.3%. The “Percent increase of N-link asialo-” value [1, 5] was −9.6%, the “Percent increase of N-link-Di-” value [1, 5] was 13.9% and the “Percent increase of N-link-Mono-” value [1, 5] was 7.3%. For the same compound, the “Percent increase of N-link-Tri and tetra-” value [1, 5] was 13.6%, the “Percent increase of O-link SA” value [1, 5] was 0.5% and the “Percent increase of SA” value ([1]; DEX 0.1 μM added day 2, harvest day 10, vs control) was 13.0%. For the same compound, the “Percent increase of N-link asialo-” value [1, 6] was −10.0%, the “Percent increase of N-link-Di-” value [1, 6] was 19.4% and the “Percent increase of N-link-Mono-” value [1, 6] was 4.3%. The “Percent increase of O-link SA” value [1, 6] was 0.9%, the “Percent increase of SA” value ([1]; DEX 1.0 μM added day 2, harvest day 10, vs control) was 13.0% and the “Percent increase of N-link asialo-” value [1, 7] was −15.6%. For the same compound, the “Percent increase of N-link-Di-” value [1, 7] was 24.3%, the “Percent increase of N-link-Mono-” value [1, 7] was 7.3% and the “Percent increase of N-link-Tri and tetra-” value [1, 7] was 20.5%. The “Percent increase of O-link SA” value [1, 7] was 0.0%, the “Percent increase of SA” value ([1]; DEX 10 μM added day 2, harvest day 10, vs control) was 20.4% and the “absorbance measurement of sialidase activity” value (sialidase; day 4) was 0.006±0.002. For the same compound, the “absorbance measurement of sialidase activity” value (sialidase; day 10) was 0.024±0.003, the “normalized expression profile change of GILZ (qRT-PCR)” value ([2]; day 5 samples) was 7.66±1.08 and the “normalized expression profile change of GILZ (qRT-PCR)” value ([2]; day 8 samples) was 10.48±2.16.
